Key:
[1] = target: Homeodomain-interacting protein kinase 1 (Homo sapiens) (UniProt Q86Z02); conditions: Compound concentration 1000.0 nM
[2] = test system: Tyrosine-protein kinase ABL1 (Homo sapiens), P00519 [Y253F]; conditions: Compound concentration 1000.0 nM
[3] = target: Serine/threonine-protein kinase 24 (Homo sapiens) (UniProt Q9Y6E0); conditions: Compound concentration 1000.0 nM
[4] = target: BDNF/NT-3 growth factors receptor (Homo sapiens) (UniProt Q16620); conditions: Compound concentration 1000.0 nM
[5] = organism: Rattus norvegicus; conditions: Compound concentration 10.0 uM
[6] = target: Protein kinase C iota type (Homo sapiens) (UniProt P41743); conditions: Compound concentration 1000.0 nM
[7] = target: Tyrosine-protein kinase BTK (Homo sapiens) (UniProt Q06187); conditions: Compound concentration 1000.0 nM
[8] = target: Dual specificity testis-specific protein kinase 1 (Homo sapiens) (UniProt Q15569); conditions: Compound concentration 1000.0 nM
[9] = target: Insulin-like growth factor 1 receptor (Homo sapiens) (UniProt P08069); conditions: Compound concentration 1000.0 nM
[10] = target: Citron Rho-interacting kinase (Homo sapiens) (UniProt O14578); conditions: Compound concentration 1000.0 nM
Sequence of Citron Rho-interacting kinase (Homo sapiens) (O14578 whole entry): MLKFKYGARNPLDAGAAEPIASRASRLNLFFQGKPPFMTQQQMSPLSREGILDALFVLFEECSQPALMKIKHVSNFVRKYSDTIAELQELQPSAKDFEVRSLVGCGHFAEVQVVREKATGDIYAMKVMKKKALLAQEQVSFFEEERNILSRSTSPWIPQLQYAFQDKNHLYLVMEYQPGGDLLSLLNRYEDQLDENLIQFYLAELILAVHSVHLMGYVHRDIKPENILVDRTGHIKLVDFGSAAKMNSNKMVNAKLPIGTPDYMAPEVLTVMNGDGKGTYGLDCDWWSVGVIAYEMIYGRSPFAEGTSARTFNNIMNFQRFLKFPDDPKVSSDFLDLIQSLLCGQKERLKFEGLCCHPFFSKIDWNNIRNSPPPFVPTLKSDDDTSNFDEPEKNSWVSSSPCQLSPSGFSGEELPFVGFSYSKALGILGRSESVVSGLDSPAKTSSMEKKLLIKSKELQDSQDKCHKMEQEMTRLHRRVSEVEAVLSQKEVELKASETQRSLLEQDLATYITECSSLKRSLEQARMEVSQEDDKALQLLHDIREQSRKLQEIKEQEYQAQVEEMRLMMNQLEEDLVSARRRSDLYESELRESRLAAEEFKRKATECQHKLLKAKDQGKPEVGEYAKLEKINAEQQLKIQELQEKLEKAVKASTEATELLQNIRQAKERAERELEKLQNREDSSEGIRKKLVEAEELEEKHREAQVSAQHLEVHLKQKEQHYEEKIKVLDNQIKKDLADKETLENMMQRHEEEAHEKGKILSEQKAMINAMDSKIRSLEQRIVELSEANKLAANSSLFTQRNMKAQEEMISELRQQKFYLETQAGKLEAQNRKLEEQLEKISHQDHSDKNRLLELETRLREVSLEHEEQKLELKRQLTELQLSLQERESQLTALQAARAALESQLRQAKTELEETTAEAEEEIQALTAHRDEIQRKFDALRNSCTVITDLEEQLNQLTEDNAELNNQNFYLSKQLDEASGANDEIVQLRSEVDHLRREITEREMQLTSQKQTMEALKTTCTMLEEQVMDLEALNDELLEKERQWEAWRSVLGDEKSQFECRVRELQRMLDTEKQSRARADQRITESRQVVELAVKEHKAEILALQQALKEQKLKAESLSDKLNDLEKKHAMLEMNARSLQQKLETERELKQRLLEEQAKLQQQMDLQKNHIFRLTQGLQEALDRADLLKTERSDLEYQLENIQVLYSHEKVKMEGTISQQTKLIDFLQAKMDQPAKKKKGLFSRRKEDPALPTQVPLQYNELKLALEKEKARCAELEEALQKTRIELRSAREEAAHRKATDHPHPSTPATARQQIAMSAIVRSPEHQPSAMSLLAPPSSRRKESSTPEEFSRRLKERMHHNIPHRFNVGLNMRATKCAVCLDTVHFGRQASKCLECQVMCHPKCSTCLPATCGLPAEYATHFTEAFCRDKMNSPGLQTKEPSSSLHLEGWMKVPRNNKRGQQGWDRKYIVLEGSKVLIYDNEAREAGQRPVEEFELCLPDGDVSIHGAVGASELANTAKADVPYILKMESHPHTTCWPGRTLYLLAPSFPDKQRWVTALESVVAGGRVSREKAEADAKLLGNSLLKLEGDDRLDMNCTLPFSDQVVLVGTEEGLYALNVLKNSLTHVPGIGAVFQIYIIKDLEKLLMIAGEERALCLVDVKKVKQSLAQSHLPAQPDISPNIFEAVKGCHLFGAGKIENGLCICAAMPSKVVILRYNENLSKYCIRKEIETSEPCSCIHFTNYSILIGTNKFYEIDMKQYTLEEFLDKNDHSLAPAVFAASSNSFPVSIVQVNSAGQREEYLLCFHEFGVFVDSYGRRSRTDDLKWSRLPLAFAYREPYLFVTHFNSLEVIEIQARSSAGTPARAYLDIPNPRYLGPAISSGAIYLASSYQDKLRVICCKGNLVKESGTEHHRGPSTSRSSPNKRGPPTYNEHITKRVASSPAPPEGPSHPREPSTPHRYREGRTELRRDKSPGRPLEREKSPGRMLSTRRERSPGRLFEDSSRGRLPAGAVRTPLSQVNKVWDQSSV

[11] = target: Dual serine/threonine and tyrosine protein kinase (Homo sapiens) (UniProt Q6XUX3); conditions: Compound concentration 1000.0 nM
Sequence of Dual serine/threonine and tyrosine protein kinase (Homo sapiens) (Q6XUX3 whole entry): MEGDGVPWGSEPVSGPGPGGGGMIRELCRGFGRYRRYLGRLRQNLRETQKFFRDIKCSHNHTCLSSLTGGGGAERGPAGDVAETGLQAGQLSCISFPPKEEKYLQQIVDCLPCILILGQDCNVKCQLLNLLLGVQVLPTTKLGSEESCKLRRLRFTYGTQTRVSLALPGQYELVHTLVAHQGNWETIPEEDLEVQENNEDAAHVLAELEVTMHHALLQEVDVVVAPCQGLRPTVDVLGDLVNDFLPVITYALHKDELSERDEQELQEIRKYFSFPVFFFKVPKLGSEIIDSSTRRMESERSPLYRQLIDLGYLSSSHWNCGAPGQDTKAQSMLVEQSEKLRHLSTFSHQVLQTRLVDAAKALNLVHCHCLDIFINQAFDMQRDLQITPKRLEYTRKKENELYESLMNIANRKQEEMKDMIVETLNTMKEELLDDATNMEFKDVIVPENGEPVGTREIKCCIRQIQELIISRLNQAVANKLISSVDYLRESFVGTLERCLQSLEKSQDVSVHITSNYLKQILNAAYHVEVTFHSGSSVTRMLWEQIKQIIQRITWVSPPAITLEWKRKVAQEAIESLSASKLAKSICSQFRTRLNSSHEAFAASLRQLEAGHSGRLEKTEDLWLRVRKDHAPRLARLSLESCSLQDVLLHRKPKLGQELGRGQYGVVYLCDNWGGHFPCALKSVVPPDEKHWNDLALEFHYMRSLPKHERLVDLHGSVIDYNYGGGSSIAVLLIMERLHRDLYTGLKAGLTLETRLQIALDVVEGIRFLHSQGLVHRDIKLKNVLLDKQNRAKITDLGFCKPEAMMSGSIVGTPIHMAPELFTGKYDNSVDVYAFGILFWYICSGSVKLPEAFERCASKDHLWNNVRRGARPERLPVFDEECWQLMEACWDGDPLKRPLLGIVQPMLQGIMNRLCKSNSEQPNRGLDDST

[12] = target: Tyrosine-protein kinase Tec (Homo sapiens) (UniProt P42680); conditions: Compound concentration 1000.0 nM
[13] = target: Muscle, skeletal receptor tyrosine-protein kinase (Homo sapiens) (UniProt O15146); conditions: Compound concentration 1000.0 nM
[14] = target: Receptor tyrosine-protein kinase erbB-3 (Homo sapiens) (UniProt P21860); conditions: Compound concentration 1000.0 nM
[15] = target: Tyrosine-protein kinase Fer (Homo sapiens) (UniProt P16591); conditions: Compound concentration 1000.0 nM
[16] = test system: Epidermal growth factor receptor (Homo sapiens), P00533 [L858R]; conditions: Compound concentration 1000.0 nM
[17] = target: Myosin light chain kinase, smooth muscle (Homo sapiens) (UniProt Q15746); conditions: Compound concentration 1000.0 nM
[18] = target: Cyclin-dependent kinase 4 (Homo sapiens) (UniProt P11802); conditions: Compound concentration 1000.0 nM
Sequence of Cyclin-dependent kinase 4 (Homo sapiens) (P11802 whole entry): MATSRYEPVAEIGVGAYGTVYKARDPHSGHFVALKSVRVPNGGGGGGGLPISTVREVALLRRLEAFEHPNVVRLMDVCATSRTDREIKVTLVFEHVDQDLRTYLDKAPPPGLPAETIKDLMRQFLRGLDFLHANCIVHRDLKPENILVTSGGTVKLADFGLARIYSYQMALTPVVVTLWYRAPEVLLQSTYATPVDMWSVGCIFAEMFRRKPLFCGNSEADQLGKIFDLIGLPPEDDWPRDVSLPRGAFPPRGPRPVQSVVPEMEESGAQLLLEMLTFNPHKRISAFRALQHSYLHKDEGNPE

[19] = target: Serine/threonine-protein kinase PAK 6 (Homo sapiens) (UniProt Q9NQU5); conditions: Compound concentration 1000.0 nM
[20] = target: Fibroblast growth factor receptor 2 (Homo sapiens) (UniProt P21802); conditions: Compound concentration 1000.0 nM
[21] = target: Casein kinase I isoform gamma-3 (Homo sapiens) (UniProt Q9Y6M4); conditions: Compound concentration 1000.0 nM
Sequence of Casein kinase I isoform gamma-3 (Homo sapiens) (Q9Y6M4 whole entry, looked up, canonical isoform): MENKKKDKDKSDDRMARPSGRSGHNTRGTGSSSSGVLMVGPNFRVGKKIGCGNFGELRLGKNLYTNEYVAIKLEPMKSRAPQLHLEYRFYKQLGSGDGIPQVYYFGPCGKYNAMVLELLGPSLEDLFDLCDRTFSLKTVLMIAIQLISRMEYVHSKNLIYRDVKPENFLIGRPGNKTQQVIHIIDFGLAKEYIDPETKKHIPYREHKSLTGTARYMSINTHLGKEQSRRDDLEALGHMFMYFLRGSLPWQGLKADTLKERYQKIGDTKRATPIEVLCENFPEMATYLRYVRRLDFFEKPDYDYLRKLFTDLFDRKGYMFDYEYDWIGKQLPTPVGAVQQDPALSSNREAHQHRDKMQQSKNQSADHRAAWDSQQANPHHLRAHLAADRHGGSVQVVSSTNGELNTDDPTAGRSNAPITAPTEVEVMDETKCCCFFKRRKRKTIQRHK

[22] = target: Mitogen-activated protein kinase kinase kinase 5 (Homo sapiens) (UniProt Q99683); conditions: Compound concentration 1000.0 nM
[23] = target: Cyclin-dependent kinase 11A (Homo sapiens) (UniProt Q9UQ88); conditions: Compound concentration 1000.0 nM
[24] = target: Proto-oncogene tyrosine-protein kinase Src (Homo sapiens) (UniProt P12931); conditions: Compound concentration 1000.0 nM
[25] = target: Cyclin-dependent kinase 4 (Homo sapiens) (UniProt P11802); conditions: Compound concentration 1000.0 nM; remark: listed apart in the source
[26] = target: Serine/threonine-protein kinase pim-2 (Homo sapiens) (UniProt Q9P1W9); conditions: Compound concentration 1000.0 nM
[27] = test system: Proto-oncogene tyrosine-protein kinase receptor Ret (Homo sapiens), P07949 [V804L]; conditions: Compound concentration 1000.0 nM
[28] = target: D(2) dopamine receptor (Homo sapiens) (UniProt P14416); conditions: Compound concentration 10.0 uM
[29] = test system: Epidermal growth factor receptor (Homo sapiens), P00533 [L861Q]; conditions: Compound concentration 1000.0 nM
[30] = target: Protein kinase C epsilon type (Homo sapiens) (UniProt Q02156); conditions: Compound concentration 1000.0 nM
[31] = target: Sodium-dependent serotonin transporter (Homo sapiens) (UniProt P31645); conditions: Compound concentration 10.0 uM
[32] = target: Calcium-dependent protein kinase 1 (Plasmodium falciparum) (UniProt P62344); conditions: Compound concentration 1000.0 nM
[33] = target: Serine/threonine-protein kinase BRSK2 (Homo sapiens) (UniProt Q8IWQ3); conditions: Compound concentration 1000.0 nM
[34] = target: Tyrosine-protein kinase Fgr (Homo sapiens) (UniProt P09769); conditions: Compound concentration 1000.0 nM
Sequence of Tyrosine-protein kinase Fgr (Homo sapiens) (P09769 2-529 limits assumed): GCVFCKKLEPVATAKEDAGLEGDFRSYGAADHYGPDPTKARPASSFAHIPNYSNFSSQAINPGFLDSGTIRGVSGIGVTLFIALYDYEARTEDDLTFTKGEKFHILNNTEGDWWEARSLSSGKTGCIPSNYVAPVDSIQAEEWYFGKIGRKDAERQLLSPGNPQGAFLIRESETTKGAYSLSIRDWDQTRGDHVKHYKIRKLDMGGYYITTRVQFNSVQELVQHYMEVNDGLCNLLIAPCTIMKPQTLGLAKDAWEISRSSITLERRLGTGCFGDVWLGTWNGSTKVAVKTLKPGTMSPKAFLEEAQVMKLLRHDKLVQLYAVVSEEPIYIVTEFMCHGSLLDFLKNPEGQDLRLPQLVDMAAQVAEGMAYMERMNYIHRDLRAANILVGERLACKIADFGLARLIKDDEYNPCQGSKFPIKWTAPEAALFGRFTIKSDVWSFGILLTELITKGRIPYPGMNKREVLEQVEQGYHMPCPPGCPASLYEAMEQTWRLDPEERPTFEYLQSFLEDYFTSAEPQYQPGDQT

[35] = target: Activated CDC42 kinase 1 (Homo sapiens) (UniProt Q07912); conditions: Compound concentration 1000.0 nM
[36] = target: Rho-associated protein kinase 2 (Homo sapiens) (UniProt O75116); conditions: Compound concentration 1000.0 nM
[37] = target: MAP kinase-activated protein kinase 2 (Homo sapiens) (UniProt P49137); conditions: Compound concentration 1000.0 nM
[38] = target: Mitogen-activated protein kinase kinase kinase 2 (Homo sapiens) (UniProt Q9Y2U5); conditions: Compound concentration 1000.0 nM
Sequence of Mitogen-activated protein kinase kinase kinase 2 (Homo sapiens) (Q9Y2U5 whole entry): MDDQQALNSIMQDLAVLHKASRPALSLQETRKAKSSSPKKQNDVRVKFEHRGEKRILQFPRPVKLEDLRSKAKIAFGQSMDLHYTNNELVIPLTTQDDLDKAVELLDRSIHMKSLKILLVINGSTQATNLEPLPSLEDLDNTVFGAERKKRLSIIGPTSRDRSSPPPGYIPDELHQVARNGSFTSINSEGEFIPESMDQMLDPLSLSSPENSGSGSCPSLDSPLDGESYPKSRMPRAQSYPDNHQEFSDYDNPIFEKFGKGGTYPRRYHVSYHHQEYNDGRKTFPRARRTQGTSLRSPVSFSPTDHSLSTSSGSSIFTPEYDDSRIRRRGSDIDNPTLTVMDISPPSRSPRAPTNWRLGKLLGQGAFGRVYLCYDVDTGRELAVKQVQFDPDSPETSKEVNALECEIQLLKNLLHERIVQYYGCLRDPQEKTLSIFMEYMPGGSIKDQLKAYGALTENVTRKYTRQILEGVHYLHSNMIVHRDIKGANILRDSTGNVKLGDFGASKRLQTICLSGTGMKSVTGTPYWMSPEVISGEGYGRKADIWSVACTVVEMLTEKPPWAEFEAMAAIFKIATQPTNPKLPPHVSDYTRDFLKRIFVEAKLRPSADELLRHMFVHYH

[39] = target: Calcium/calmodulin-dependent protein kinase type II subunit delta (Homo sapiens) (UniProt Q13557); conditions: Compound concentration 1000.0 nM
[40] = target: Calcium/calmodulin-dependent protein kinase type II subunit gamma (Homo sapiens) (UniProt Q13555); conditions: Compound concentration 1000.0 nM
[41] = target: Serine/threonine-protein kinase MARK2 (Homo sapiens) (UniProt Q7KZI7); conditions: Compound concentration 1000.0 nM
[42] = target: Protein kinase C eta type (Homo sapiens) (UniProt P24723); conditions: Compound concentration 1000.0 nM
[43] = target: Protein kinase C delta type (Homo sapiens) (UniProt Q05655); conditions: Compound concentration 1000.0 nM
[44] = target: Serine/threonine-protein kinase tousled-like 2 (Homo sapiens) (UniProt Q86UE8); conditions: Compound concentration 1000.0 nM
[45] = target: Serine/threonine-protein kinase NIM1 (Homo sapiens) (UniProt Q8IY84); conditions: Compound concentration 1000.0 nM
[46] = target: Myotonin-protein kinase (Homo sapiens) (UniProt Q09013); conditions: Compound concentration 1000.0 nM

Q: Which results are given for `CO[C@@H](C)c1c(Nc2ccc([C@@H](N(C)C(=O)C3CCS(=O)(=O)CC3)C(F)(F)F)cc2)cnc2cc(Cl)nn12` [NVS-MALT1-C]?
A: residual activity [1]: 56%; residual activity [2]: 100%; residual activity [3]: 89%; residual activity [4]: 100%; inhibition [5]: 5.14%; residual activity [6]: 76%; residual activity [7]: 100%; residual activity [8]: 83%; residual activity [9]: 97%; residual activity [10]: 97%; residual activity [11]: 100%; residual activity [12]: 82%; residual activity [13]: 88%; residual activity [14]: 100%; residual activity [15]: 89%; residual activity [16]: 87%; residual activity [17]: 98%; residual activity [18]: 100%; residual activity [19]: 100%; residual activity [20]: 84%; residual activity [21]: 71%; residual activity [22]: 81%; residual activity [23]: 100%; residual activity [24]: 98%; residual activity [25]: 100%; residual activity [26]: 95%; residual activity [27]: 78%; inhibition [28]: -4.3%; residual activity [29]: 100%; residual activity [30]: 94%; inhibition [31]: 14.6%; residual activity [32]: 78%; residual activity [33]: 90%; residual activity [34]: 100%; residual activity [35]: 84%; residual activity [36]: 100%; residual activity [37]: 100%; residual activity [38]: 100%; residual activity [39]: 100%; residual activity [40]: 84%; residual activity [41]: 100%; residual activity [42]: 78%; residual activity [43]: 90%; residual activity [44]: 100%; residual activity [45]: 85%; residual activity [46]: 91%

Q: For `CO[C@@H](C)c1c(Nc2ccc([C@H](N(C)C(=O)C3CCS(=O)(=O)CC3)C(F)(F)F)cc2)cnc2cc(Cl)nn12` [NVS-MALT1], which residual activity [1] is on record?
A: Its residual activity is 40%.

Q: And the residual activity [2]?
A: Its residual activity is 100%.

Q: What about the residual activity [3] of the same compound?
A: Its residual activity is 83%.

Q: And the residual activity [4]?
A: Its residual activity is 100%.

Q: And the inhibition [5]?
A: The inhibition was 11.6%.

Q: And the residual activity [6]?
A: The residual activity was 72%.

Q: And the residual activity [7]?
A: The residual activity was 100%.

Q: And the residual activity [8]?
A: Its residual activity is 85%.

Q: What about the residual activity [9] of the same compound?
A: The residual activity was 100%.

Q: And the residual activity [10]?
A: The residual activity was 94%.

Q: And the residual activity [11]?
A: Its residual activity is 100%.

Q: What about the residual activity [12] of the same compound?
A: Its residual activity is 84%.

Q: What about the residual activity [13] of the same compound?
A: The residual activity was 83%.

Q: And the residual activity [14]?
A: Its residual activity is 100%.

Q: What about the residual activity [15] of the same compound?
A: Its residual activity is 88%.

Q: And the residual activity [16]?
A: The residual activity was 88%.

Q: What about the residual activity [17] of the same compound?
A: Its residual activity is 95%.

Q: And the residual activity [18]?
A: The residual activity was 100%.

Q: And the residual activity [19]?
A: Its residual activity is 100%.

Q: What about the residual activity [20] of the same compound?
A: Its residual activity is 91%.

Q: And the residual activity [21]?
A: The residual activity was 72%.

Q: What about the residual activity [22] of the same compound?
A: Its residual activity is 84%.

Q: What about the residual activity [23] of the same compound?
A: Its residual activity is 93%.

Q: What about the residual activity [24] of the same compound?
A: Its residual activity is 99%.

Q: And the residual activity [25]?
A: Its residual activity is 100%.

Q: And the residual activity [26]?
A: The residual activity was 100%.

Q: And the residual activity [27]?
A: The residual activity was 86%.

Q: And the inhibition [28]?
A: The inhibition was 4.1%.

Q: What about the residual activity [29] of the same compound?
A: Its residual activity is 100%.

Q: What about the residual activity [30] of the same compound?
A: The residual activity was 100%.

Q: What about the inhibition [31] of the same compound?
A: Its inhibition is 11.3%.

Q: What about the residual activity [32] of the same compound?
A: The residual activity was 97%.

Q: And the residual activity [33]?
A: Its residual activity is 79%.

Q: What about the residual activity [34] of the same compound?
A: The residual activity was 100%.

Q: And the residual activity [35]?
A: The residual activity was 100%.

Q: What about the residual activity [36] of the same compound?
A: The residual activity was 100%.

Q: What about the residual activity [37] of the same compound?
A: The residual activity was 90%.

Q: What about the residual activity [38] of the same compound?
A: The residual activity was 100%.

Q: What about the residual activity [39] of the same compound?
A: Its residual activity is 86%.

Q: And the residual activity [40]?
A: The residual activity was 77%.

Q: And the residual activity [41]?
A: The residual activity was 100%.

Q: What about the residual activity [42] of the same compound?
A: The residual activity was 86%.

Q: What about the residual activity [43] of the same compound?
A: The residual activity was 79%.

Q: And the residual activity [44]?
A: The residual activity was 92%.

Q: And the residual activity [45]?
A: Its residual activity is 79%.

Q: And the residual activity [46]?
A: The residual activity was 84%.

Source: ChEMBL document CHEMBL4507320, “Data for DCP probe NVS-MALT1” (2021)
